Measurements as given in patent US10029984B2, “Mono- or di-substituted indole derivatives as dengue viral replication inhibitors” (Janssen Pharmaceuticals, Inc., priority 2015, dated 2018).
pEC50: −log10 of the molar value.

Legend:
in vitro [1] = type: cell-based; details: African green monkey, CC50
Procedure: (§1) The antiviral activity of the compounds of the invention was tested against DENV-1 strain TC974#666 (NCPV; Table 6), DENV-2 strain 16681 (Table 7), DENV-3 strain H87 (NCPV; Table 8) and DENV-4 strains H241 (NCPV; Table 9) in a RT-qPCR assay. Therefore, Vero cells were infected with either DENV-1, or -2, or -3, or -4 in the presence or absence of test compounds. At day 3 post-infection, the cells were lysed and cell lysates were used to prepare cDNA of both a viral target (the 3′UTR of DENV; table 2) and a cellular reference gene (β-actin, table 2). Subsequently, a duplex real time PCR was performed on a Lightcycler480 instrument. The generated Cp value is inversely proportional to the amount of RNA expression of these targets. Inhibition of DENV replication by a test compound result in a shift of Cp's for the 3′UTR gene. On the other hand, if a test compound is toxic to the cells, a similar effect on β-actin expression will be observed. The comparative ΔΔCp method is used to calculate EC50, which is based on the relative gene expression of the target gene (3′UTR) normalized with the cellular housekeeping gene (β-actin).
(§2) The culture medium consisted of minimal essential medium supplemented with 2% of heat-inactivated fetal calf serum, 0.04% gentamycin (50 mg/mL) and 2 mM of L-glutamine. Vero cells, obtained from ECACC, were suspended in culture medium and 75 μL/well was added in 96-well plates (10000 cells/well), which already contain the antiviral compounds. Typically, these plates contain a 4-fold serial dilution of 9 dilution steps of the test compound at 200 times the final concentration in 100% DMSO (500 nL; final concentration range: 25 μM-0.00038 μM). In addition, each plate contains wells which are assigned as virus controls (containing cells and virus in the absence of compound) and cell controls (containing cells in the absence of virus and compound). Once the cells were added in the plates, the plates were incubated in a fully humidified incubator (37° C., 5% CO2) until the next day. Then, DENV-1 strain TC974#666 at an MOI of 0.6, DENV-2 strain 16681 at an MOI of 0.01, DENV-3 strain H87 at an MOI of 1.0 and DENV-4 strains H241 at an MOI of 0.2 and SG/06K2270DK1/2005 at an MOI of 0.16, were added. Therefore, 25 μL of virus suspension was added to all the wells containing test compound and to the wells assigned as virus control. In parallel, 25 μL of culture medium was added to the cell controls. Next, the plates were incubated for 3 days in a fully humidified incubator (37° C., 5% CO2). After 3 days, the supernatant was removed from the wells and the cells were washed twice with ice-cold PBS (˜100 μL). The cell pellets within the 96-well plates were stored at −80° C. for at least 1 day. Next, RNA was extracted using the Cells-to-CT™ lysis kit, according to the manufacture's guideline (Applied Biosystems). The cell lysates can be stored at −80° C. or immediately used in the reverse transcription step.
(§3) Finally, a RT-qPCR mix was prepared, mix C (table 4A), dispensed in 96-well LightCycler qPCR plates to which 3 μL of cDNA was added and the qPCR was performed according to the conditions in table 4B on a LightCycler 480. Using the LightCycler software and an in-house LIMS system, dose response curves for each compound were calculated and the half maximal effective concentration (EC50) and the half maximal cytotoxic concentration (CC50) were determined.

DENV-2 16681 strain = experiment: DENV-2 antiviral assay (eGFP-labeled virus in Vero cells); type: cell-based, Dengue virus; details: DENV-2 16681 eGFP, MOI 0.5, 3 days
Procedure: The antiviral activity of all the compounds of the invention was tested against DENV-2 16681 strain which was labeled with enhanced green fluorescent protein (eGPF; Table 1). The culture medium consists of minimal essential medium supplemented with 2% of heat-inactivated fetal calf serum, 0.04% gentamycin (50 mg/mL) and 2 mM of L-glutamine. Vero cells, obtained from ECACC, were suspended in culture medium and 25 μL was added to 384-well plates (2500 cells/well), which already contain the antiviral compounds. Typically, these plates contain a 4-fold serial dilution of 9 dilution steps of the test compound at 200 times the final concentration in 100% DMSO (200 nL). In addition, each compound concentration is tested in quadruplicate (final concentration range: 25 μM-0.00038 μM). Finally, each plate contains wells which are assigned as virus controls (containing cells and virus in the absence of compound), cell controls (containing cells in the absence of virus and compound) and medium controls (containing medium in the absence of cells, virus and compounds). To the wells assigned as medium control, 25 μL of culture medium was added instead of Vero cells. Once the cells were added to the plates, the plates were incubated for 30 minutes at room temperature to allow the cells to distribute evenly within the wells. Next, the plates were incubated in a fully humidified incubator (37° C., 5% CO2) until the next day. Then, DENV-2 strain 16681, labeled with eGFP, was added at a multiplicity of infection (MOI) of 0.5. Therefore, 15 μL of virus suspension was added to all the wells containing test compound and to the wells assigned as virus control. In parallel, 15 μL of culture medium was added to the medium and cell controls. Next, the plates were incubated for 3 days in a fully humidified incubator (37° C., 5% CO2). At the day of the read out, the eGFP fluorescence was measured using an automated fluorescence microscope at 488 nm (blue laser). Using an in-house LIMS system, inhibition dose response curves for each compound were calculated and the half maximal effective concentration (EC50) was determined. Therefore, the percent inhibition (I) for every test concentration is calculated using the following formula: I=100*(ST−SCC)/(SVC−SCC); ST, SCC and SVC are the amount of eGFP signal in the test compound, cell control and virus control wells, respectively. The EC50 represents the concentration of a compound at which the virus replication is inhibited with 50%, as measured by a 50% reduction of the eGFP fluorescent intensity compared to the virus control. The EC50 is calculated using linear interpolation.

DENV-2 strain 16681 = experiment: Tetravalent RT-qPCR assay Protocol A, serotype 2; type: cell-based; details: Dengue virus, DENV2, 72 h; RT-qPCR serotype 2 16681, Vero cells, day 3
Procedure: as §1, §2
(§4) In preparation of the reverse transcription step, mix A (table 3A) was prepared and 7.57 μL/well was dispensed in a 96-well plate. After addition of 5 μL of the cell lysates, a five minute denaturation step at 75° C. was performed (table 3B). Afterwards, 7.43 μL of mix B was added (table 3C) and the reverse transcription step was initiated (table 3D) to generate cDNA.
as §3

DENV-3 strain H87 = experiment: Tetravalent RT-qPCR assay Protocol A, serotype 3; type: cell-based; details: Dengue virus, DENV3, 72 h; RT-qPCR serotype 3 H87, Vero cells, day 3
Procedure: as §1, §2, §4, §3

DENV-1 strain TC974#666 = experiment: Tetravalent RT-qPCR assay Protocol A, serotype 1; type: cell-based; details: Dengue virus, DENV1, 72 h; RT-qPCR serotype 1 TC974#666, Vero cells, day 3
Procedure: as §1, §2, §4, §3

DENV-4 strains H241 = experiment: Tetravalent RT-qPCR assay Protocol A, serotype 4; type: cell-based; details: Dengue virus, DENV4, 72 h; RT-qPCR serotype 4 H241, Vero cells, day 3
Procedure: as §1, §2, §4, §3

Vero cells = experiment: in vitro; type: cell-based; details: African green monkey
Procedure: (§5) In parallel, the toxicity of the compounds was assessed on the same plates. Once the read-out for the eGFP signal was done, 10 μL of resazurin, a cell viability stain, was added to all wells of the 384-well plates. The resazurin assay is based on the reduction of the blue resazurin by NADH, produced by the cells, into the highly fluorescent product, resorufin. The formation of pink fluorescent resorufin is directly related to the number of viable cells in the well. The plates were incubated for an additional 5 hours in a fully humidified incubator (37° C., 5% CO2). Next, the plates were measured on an Infinite reader (Tecan) using an excitation wavelength of 530 nm. The half maximal cytotoxic concentration (CC50) was also determined, defined as the concentration required to reduce the resazurin conversion by 50% compared to that of the cell control wells. Finally, the selectivity index (SI) was determined for the compounds, which was calculated as followed: SI=CC50/EC50.

in vitro [2] = type: cell-based; details: African green monkey, CC50; remark: listed apart in the source
Procedure: as §5

[3] = Dengue virus, DENV2, Vero, 72 h

| Compound | pEC50 (DENV-2 strain 16681) | pEC50 (DENV-3 strain H87) | pEC50 (DENV-1 strain TC974#666) | pEC50 (DENV-4 strains H241) | CC50 (in vitro [2]) | pEC50 (DENV-2 16681 strain; [3]) | also measured |
| --- | --- | --- | --- | --- | --- | --- | --- |
| COc1cc(NC(C(=O)c2c[nH]c3cc(F)ccc23)c2ccc(F)cc2OC)cc(S(C)(=O)=O)c1 (single isomer, unassigned) [Enantiomer 1A, 1-(6-fluoro-1H-indol-3-yl)-2-(4-fluoro-2-methoxyphenyl)-2-((3-methoxy-5-(methylsulfonyl)phenyl)amino)ethanone] | 9.08 | 7.30 | 8.29 | 6.78 | – | – | CC50 at 3 days (in vitro [1]): 3.52 µM; pEC50 (DENV-2 16681 strain; listed as 1A*): 9.06; CC50 (Vero cells): 5.9 µM |
| COc1cc(NC(C(=O)c2c[nH]c3cc(OC)ccc23)c2ccc(F)cc2OC)cc(S(C)(=O)=O)c1 (single isomer, unassigned) [Enantiomer 5B, 2-(4-fluoro-2-methoxyphenyl)-1-(6-methoxy-1H-indol-3-yl)-2-((3-methoxy-5-(methylsulfonyl)phenyl)amino)ethanone] | 8.91 | 7.00 | 8.05 | 6.73 | – | – | pEC50 (DENV-2 16681 strain; listed as 5B*): 9.00; CC50 (Vero cells): > 13 µM |
| COc1cc(NC(C(=O)c2c[nH]c3c(Cl)c(OC)ccc23)c2ccc(F)cc2OC)cc(S(C)(=O)=O)c1 (single isomer, unassigned) [Enantiomer 12A, 1-(7-chloro-6-methoxy-1H-indol-3-yl)-2-(4-fluoro-2-methoxyphenyl)-2-((3-methoxy-5-(methylsulfonyl)phenyl)amino)ethanone] | 9.60 | 7.13 | 7.85 | 6.58 | > 25 µM | – | pEC50 (DENV-2 16681 strain; listed as 12A*): 9.38 |
| COc1cc(NC(C(=O)c2c[nH]c3ccc(OC(F)(F)F)cc23)c2ccc(F)cc2OC)cc(S(C)(=O)=O)c1 (racemic) [Compound 18, 2-(4-fluoro-2-methoxyphenyl)-2-((3-methoxy-5-(methylsulfonyl)phenyl)amino)-1-(5-(trifluoromethoxy)-1H-indol-3-yl)ethanone] | – | – | – | – | 3.3 µM | 9.60 | – |
| COc1cc(NC(C(=O)c2c[nH]c3cc(Cl)ccc23)c2ccc(F)cc2OC)cc(S(C)(=O)=O)c1 (racemic) [Compound 4, 1-(6-chloro-1H-indol-3-yl)-2-(4-fluoro-2-methoxyphenyl)-2-((3-methoxy-5-(methylsulfonyl)phenyl)amino)ethanone] | – | – | – | – | 6.6 µM | 8.96 | – |
| COc1cc(NC(C(=O)c2c[nH]c3cc(F)ccc23)c2ccc(F)cc2OC)cc(S(C)(=O)=O)c1 (racemic) [Compound 1, 1-(6-fluoro-1H-indol-3-yl)-2-(4-fluoro-2-methoxyphenyl)-2-((3-methoxy-5-(methylsulfonyl)phenyl)amino)ethanone] | – | – | – | – | 9.9 µM | 8.70 | – |
| COc1cc(NC(C(=O)c2c[nH]c3cc(OC)c(F)cc23)c2ccc(F)cc2OC)cc(S(C)(=O)=O)c1 (racemic) [Compound 11, 2-(4-fluoro-2-methoxyphenyl)-1-(5-fluoro-6-methoxy-1H-indol-3-yl)-2-((3-methoxy-5-(methylsulfonyl)phenyl)amino)ethanone] | – | – | – | – | 12 µM | 8.52 | – |
| COc1cc(NC(C(=O)c2c[nH]c3cc(F)c(C)cc23)c2ccc(F)cc2OC)cc(S(C)(=O)=O)c1 (racemic) [Compound 14, 2-(4-fluoro-2-methoxyphenyl)-1-(6-fluoro-5-methyl-1H-indol-3-yl)-2-((3-methoxy-5-(methylsulfonyl)phenyl)amino)ethanone] | – | – | – | – | 5.3 µM | 8.82 | – |
| COc1cc(NC(C(=O)c2c[nH]c3c(F)c(F)ccc23)c2ccc(F)cc2OC)cc(S(C)(=O)=O)c1 (single isomer, unassigned) [Enantiomer 13A, 1-(6,7-difluoro-1H-indol-3-yl)-2-(4-fluoro-2-methoxyphenyl)-2-((3-methoxy-5-(methylsulfonyl)phenyl)amino)ethanone] | – | – | – | – | 9.5 µM | – | pEC50 (DENV-2 16681 strain; listed as 13A): 7.77 |
| COc1cc(NC(C(=O)c2c[nH]c3ccc(C(F)(F)F)cc23)c2ccc(F)cc2OC)cc(S(C)(=O)=O)c1 (racemic) [Compound 17, 2-(4-fluoro-2-methoxyphenyl)-2-((3-methoxy-5-(methylsulfonyl)phenyl)amino)-1-(5-(trifluoromethyl)-1H-indol-3-yl)ethanone] | – | – | – | – | 3.5 µM | 9.62 | – |
